The test system of series [1] is CYP24A1. Put plainly: RT-qPCR of CYP24A1 mRNA in CRC cells. It counts as cell-based, human. The following applies: HCT116 and HT29 cells, 1,25(OH)2D3 (5 µM), 48 h. As for the experimental part: Total RNA was extracted with TRIzol reagent (Invitrogen) according to the manufacturer's instructions. For cDNA synthesis, 1 μg of total RNA was reverse transcribed using a FastKing RT Kit (Tiangen). RT-qPCRs were run in triplicate using SYBR Green master mix (Roche) in an ABI 7900 Thermal Cycler (Applied Biosystems) according to the manufacturer's instructions. RT-qPCRs were performed in triplicate, and the mean cycle threshold (Ct) values were calculated for expression analysis. The mRNA levels of target genes were calculated using the 2^-ΔΔCt method. The expression data were normalized to β-actin expression levels and are presented as the mean ± s.e.m. of three independent experiments.
For orientation: Real-time PCR tracks product formation cycle by cycle.

Series [2] is described as follows: Pharmacokinetic studies in mice. Also noted: t1/2 / F (bioavailability): dose or concentration left out as unconfirmed. Particulars: C57BL/6J mice. The series is classed as in vivo. As for the experimental part: Pharmacokinetic studies were performed by Shanghai Medicilon Inc, China, following standard protocols. Briefly, six-week-old male C57BL/6J mice were grouped randomly (n = 5 per group). […] Two administration formulations were prepared in the vehicle with 5% DMSO, 10% Solutol and 85% saline, with the pH adjusted to 7.0-8.0. After treatment, the mice were sacrificed, and their plasma samples were collected at 5 min, 15 min, 30 min, 1 h, 2 h, 4 h, 8 h, and 24 h. The drug concentration in plasma was analyzed by LC-MS/MS. Pharmacokinetic parameters were calculated using Analyst Software 1.6.3 from mean plasma concentration-time profiles. The area under the curve (AUC) was measured from time versus concentration data by the linear trapezoidal rule. […] The calculation was normalized to relative doses.

Series [3] addresses SIRT6 (Homo sapiens, UniProt Q8N6T7). Put plainly: FDL assay of SIRT6 deacetylase activity (RHKK-Ac-AMC). The following applies: activation of SIRT6 deacetylation, RHKK-Ac-AMC (75 µM), mean ± s.d., three independent experiments. On the set-up: WT (wild-type) full-length human SIRT6 was inserted into the pET28a-LIC vector; made in house; host or cells: Escherichia coli BL21 (DE3). The series is classed as biochemical. As for the experimental part: According to previously described methods, WT (wild-type) full-length human SIRT6 was inserted into the pET28a-LIC vector (Addgene plasmid #26094). The plasmid was transformed into Escherichia coli BL21 (DE3) cells. Protein was purified using a nickel column and gel filtration. Purified protein was dialyzed into assay buffer (50 mM Tris-HCl [pH 8.0], 137 mM NaCl, 2.7 mM KCl, and 1 mM MgCl2) and used in all in vitro assays performed in this study.
For the assessment of SIRT6 deacetylase activity, 5 μM WT SIRT6 was incubated in a 50-μL reaction mixture (2.5 mM NAD^+, 75 μM RHKK-Ac-AMC, compounds/DMSO, and assay buffer) at 37 °C for 2 h, quenched with 40 mM nicotinamide, and developed with 6 mg/mL trypsin for another 30 min at 25 °C. […] Fluorescence intensity was measured using a microplate reader (Synergy H4 Hybrid Reader, BioTek) at excitation and emission wavelengths of 360 nm and 460 nm, respectively. EC50 values were calculated by fitting the data points with the dose-response function in GraphPad Prism V7 (GraphPad Software). Each experiment was independently repeated three times in technical triplicates.

In general, Cmax refers to the maximum level reached in the sampled fluid or tissue. One may read the MRT as a mean duration of stay, worked out from the concentration-time curve. One may read the EC50 as the concentration at which the effect is half-maximal.

Chain of SIRT6 (Q8N6T7 whole entry): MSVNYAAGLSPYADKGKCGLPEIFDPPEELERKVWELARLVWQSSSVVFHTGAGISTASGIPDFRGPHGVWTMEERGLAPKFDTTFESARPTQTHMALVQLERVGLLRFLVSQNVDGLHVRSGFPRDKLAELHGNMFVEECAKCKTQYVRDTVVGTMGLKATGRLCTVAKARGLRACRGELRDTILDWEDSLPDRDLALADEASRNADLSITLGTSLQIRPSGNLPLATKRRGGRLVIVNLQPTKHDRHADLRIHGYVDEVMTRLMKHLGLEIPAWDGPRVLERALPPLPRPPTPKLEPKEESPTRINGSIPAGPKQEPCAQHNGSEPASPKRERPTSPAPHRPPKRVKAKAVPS

Consider `C=C1/C(=C\C=C2/CCC[C@]3(C)[C@@H]([C@H](C)CCCC(C)(C)O)CC[C@@H]23)C[C@@H](O)C[C@@H]1O` [1,25(OH)2D3, 1,25-dihydroxyvitamin D3, reference compound], for which the CYP24A1 transcription result in series [1] was “dramatically induced CYP24A1 transcription”.

Turning to `COC(=O)c1cc(NS(=O)(=O)c2cc(Cl)cc(Cl)c2)ccc1S(=O)(=O)Nc1cc(Br)c(F)cc1C` [MDL-800, reference compound], in series [2] (IP vs IV, ratio of AUC normalized to dose), the “F (bioavailability)” value was determined as 71.33%. Besides, in series [2] (IP, plasma, mean of five mice), the AUC0-t came to 17831.51 ng·h/mL, the “AUC0-∞” value is 17883.09 ng·h/mL, the highest concentration (Cmax) turned out to be 6610.46 ng/mL and the MRT came out at 2.47 h. Also, in series [2] (IP, plasma, mean of five mice), the t1/2 was 2.07 h and the tmax is listed as 0.50 h.

In the case of `Cc1cc(F)c(Br)cc1NS(=O)(=O)c1ccc(NS(=O)(=O)c2cc(Cl)cc(Cl)c2)cc1CN1CCNCC1` [MDL-812], the EC50 in series [3] is 12.8 ± 1 µM.

As to `CCCCN(CC)Cc1cc(NS(=O)(=O)c2cc(Cl)cc(Cl)c2)ccc1S(=O)(=O)Nc1cc(Br)c(F)cc1C` [MDL-813], the EC50 in series [3] turned out to be 15.4 ± 0.4 µM.

Turning to `Cc1cc(F)c(Br)cc1NS(=O)(=O)c1ccc(NS(=O)(=O)c2cc(Cl)cc(Cl)c2)cc1CN1CCC(N2CCCCC2)CC1` [MDL-814], the EC50 in series [3] was found to be 12.2 ± 0.7 µM.

As for `COCCCN1CCN(Cc2cc(NS(=O)(=O)c3cc(Cl)cc(Cl)c3)ccc2S(=O)(=O)Nc2cc(Br)c(F)cc2C)CC1` [MDL-815], in series [3], the EC50 was found to be 6.5 ± 0.4 µM.

As to `CCCCN1CCN(Cc2cc(NS(=O)(=O)c3cc(Cl)cc(Cl)c3)ccc2S(=O)(=O)Nc2cc(Br)c(F)cc2C)CC1` [MDL-816], the EC50 in series [3] is 7.1 ± 0.3 µM.

Regarding `Cc1cc(F)c(Br)cc1NS(=O)(=O)c1ccc(NS(=O)(=O)c2cc(Cl)cc(Cl)c2)cc1CN1CCC(N(C)C)C1` (stereo not shown) [MDL-817], the EC50 in series [3] stood at 9.9 ± 1.5 µM.

For `Cc1cc(F)c(Br)cc1NS(=O)(=O)c1ccc(NS(=O)(=O)c2cc(Cl)cc(Cl)c2)cc1CN(C)C` [MDL-818], the EC50 in series [3] is 43.6 ± 3.2 µM.

As for `CCN(C)Cc1cc(NS(=O)(=O)c2cc(Cl)cc(Cl)c2)ccc1S(=O)(=O)Nc1cc(Br)c(F)cc1C` [MDL-819], the EC50 in series [3] is 34.1 ± 2.6 µM.

Regarding `CCCN(C)Cc1cc(NS(=O)(=O)c2cc(Cl)cc(Cl)c2)ccc1S(=O)(=O)Nc1cc(Br)c(F)cc1C` [MDL-820], the EC50 in series [3] was found to be 38.4 ± 1.8 µM.

Turning to `Cc1cc(F)c(Br)cc1NS(=O)(=O)c1ccc(NS(=O)(=O)c2cc(Cl)cc(Cl)c2)cc1CN1CCCCC1` [MDL-821], in series [3], the EC50 stood at 12.2 ± 0.9 µM.

Consider `Cc1cc(F)c(Br)cc1NS(=O)(=O)c1ccc(NS(=O)(=O)c2cc(Cl)cc(Cl)c2)cc1CN1CCCC1CO` (stereo not shown) [MDL-822], for which, in series [3], the EC50 was determined as 23.9 ± 1 µM.

The record behind these values is article PMC7255010, “Small-molecule activating SIRT6 elicits therapeutic effects and synergistically promotes anti-tumor activity of vitamin D3 in colorectal cancer” (Theranostics, 2020).
